In ChEMBL document CHEMBL1150940, “New melampolides from Schkuhria schkuhrioides” (1998):
Converted amounts (≈) assume the structure as drawn.

Columns and labels:
[1] = Cytotoxicity against human COLON cells; type: functional; details: read-out: ED50 (the source's name)
[2] = Cytotoxicity against human UISO cells; type: functional; details: read-out: ED50 (the source's name)

C=C1C(=O)O[C@@H]2/C=C(\C)CC/C=C(/C=O)C[C@@H](O)[C@@H]12
EC50 [1]: 0.9 µg/mL (≈ 3.43 µM) | EC50 [2]: 1.82 µg/mL (≈ 6.94 µM)
